Laboratory results reported in paper PMC9782539, “Synthesis, Characterization and Biological Evaluation of Benzothiazole–Isoquinoline Derivative” (Molecules, 2022).

What was measured:
Cytotoxicity, MTT method = format: cell-based; conditions: mouse, L929 cells, 0–100 μM, read-out: cell viability (MTT)
Procedure: L929 (Shanghai Cell Bank, Chinese Academy of Sciences) cells were cultured in 10% fetal bovine serum: penicillin–streptomycin solution: MEM mixed medium with serum–free medium (10:1:90), and subcultured in a 5% carbon dioxide cell incubator at 37 °C, and the medium changed every other day.
In this experiment, L929 cells in the logarithmic growth phase were selected, and the cell density was adjusted to 2 × 10^4 cells per well. The cells were seeded in 96–well plates, and the 96–well plates seeded with cells were cultured in a 37 °C 5% carbon dioxide cell incubator. After 24 h, different concentrations of the test compound medium (6.5, 12.5, 25, 50, 100 μM) were added, and the blank group was added with drug–free medium, shaken gently, and placed at 37 °C 5%. The cells were cultured in a carbon dioxide cell incubator for 24 h, and each concentration was replicated 6 times. After 24 h, 20 μL of […] MTT solution (prepared in PBS with pH = 7.6) was added in the dark, and cultured in the cell incubator for another 4 h. After 4 h, the 96–well plate was taken out and the original medium was discarded. Added 160 μL DMSO, put it on a shaker and mixed well for about 10 min, used a microplate reader to measure its absorbance at 490 nm, recorded the results and analyzed.

BuChE = BuChE (Homo sapiens, UniProt P06276); experiment: biochemical; format: biochemical
Procedure: (§1) Each concentration was tested three times in parallel, and 96 empty plates were taken, and 20 µL of the test sample or positive drug (10% DMSO was added to the blank control), 40 µL of AChE or BuChE (0.2 U/mL) and 100 µL of DTNB (0.001 mol/L) were added in turn, mixed well and incubated in a constant temperature water bath at 37 °C for 15 min.

AChE = AChE (Homo sapiens, UniProt P22303); experiment: biochemical; format: biochemical
Procedure: as §1

MAO = MAO inhibitory activity (Holts method, rat liver mitochondrial enzyme); format: biochemical
Procedure: (§2) Male SD rats were sacrificed by decapitation, operated on ice, their livers were removed, and the liver surface was washed with precooled phosphate buffer. The liver was cut into pieces, and after washing (using PBS), 20 mL of 0.3 M sucrose buffer was added for homogenization. After fully homogenized, it was balanced by a tray balance. Low–temperature differential centrifugation was performed, and the obtained SD rat liver mitochondrial concentrate was the experimental monoamine oxidase stock solution, and was stored in a −80 °C refrigerator.
(§3) Added 25 µL of enzyme dilution solution and 25 µL of test derivatives (control group plus rasagiline, blank group plus 10% DMSO) to 96–well plate, incubated at 37 °C for 1 h, then 120 µL of substrate was added, 80 µL of chromogenic solution was added, incubated at 37 °C for 30 min, and its absorbance measured at 490 nm. In addition, in order to exclude the influence of protein, a protein control group was established, only the enzyme dilution was added, and the rest were replaced with PBS, and the absorbance value was detected at a wavelength of 490 nm. The inhibition rate of each concentration was substituted into the calculation software GraphPad Prism 8 to calculate the IC50 value.

MAO–B = biological target: T1, MAO–B (Rattus norvegicus, UniProt P19643); experiment: MAO–B inhibitory activity (enzyme pre-incubated with chlorgiline); format: biochemical
T1 construct: the obtained SD rat liver mitochondrial concentrate was the experimental monoamine oxidase stock solution; from tissue; host or cells: male SD rat liver mitochondria
T1 sequence (P19643 1-520): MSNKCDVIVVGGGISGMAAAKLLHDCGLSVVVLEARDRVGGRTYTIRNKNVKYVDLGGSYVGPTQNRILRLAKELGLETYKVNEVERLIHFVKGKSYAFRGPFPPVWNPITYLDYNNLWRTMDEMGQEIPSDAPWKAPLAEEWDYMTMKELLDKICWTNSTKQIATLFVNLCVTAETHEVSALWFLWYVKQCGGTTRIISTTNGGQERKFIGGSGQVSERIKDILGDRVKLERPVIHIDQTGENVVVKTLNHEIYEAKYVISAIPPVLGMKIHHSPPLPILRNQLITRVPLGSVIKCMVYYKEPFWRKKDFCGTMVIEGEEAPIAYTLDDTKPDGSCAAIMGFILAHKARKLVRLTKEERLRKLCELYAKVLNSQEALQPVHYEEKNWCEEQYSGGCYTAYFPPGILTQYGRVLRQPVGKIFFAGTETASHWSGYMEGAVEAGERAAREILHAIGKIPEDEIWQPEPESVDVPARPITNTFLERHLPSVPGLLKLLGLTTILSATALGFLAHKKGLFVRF
Procedure: as §2, §3
(§4) The inhibition rate of each concentration was substituted into the calculation software GraphPad Prism 8 to calculate the IC50 value.

MAO–A = biological target: T2, MAO–A (Rattus norvegicus, UniProt P21396); experiment: MAO–A inhibitory activity (enzyme pre-incubated with pargyline); format: biochemical
T2 construct: the obtained SD rat liver mitochondrial concentrate was the experimental monoamine oxidase stock solution; from tissue; host or cells: male SD rat liver mitochondria
T2 sequence (P21396 1-526): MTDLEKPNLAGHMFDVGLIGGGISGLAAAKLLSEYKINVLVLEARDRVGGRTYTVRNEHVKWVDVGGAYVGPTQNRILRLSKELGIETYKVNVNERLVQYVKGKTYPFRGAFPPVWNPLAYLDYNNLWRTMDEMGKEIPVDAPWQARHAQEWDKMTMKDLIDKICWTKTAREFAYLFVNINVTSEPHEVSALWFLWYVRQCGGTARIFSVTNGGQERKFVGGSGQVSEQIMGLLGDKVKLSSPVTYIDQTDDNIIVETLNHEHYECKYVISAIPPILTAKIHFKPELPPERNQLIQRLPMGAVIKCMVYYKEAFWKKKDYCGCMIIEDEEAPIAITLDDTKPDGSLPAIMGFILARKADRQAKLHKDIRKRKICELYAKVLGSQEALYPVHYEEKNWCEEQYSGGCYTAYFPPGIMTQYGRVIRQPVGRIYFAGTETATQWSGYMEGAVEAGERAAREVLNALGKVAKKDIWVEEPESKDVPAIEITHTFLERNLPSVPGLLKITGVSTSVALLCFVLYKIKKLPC
Procedure: as §2, §3, §4

ICR male mice = experiment: Forced swimming test (FST); format: in vivo; conditions: i.p., 30 mg/kg; for Duration of Immobility: 30 min after administration, mean ± SEM (n = 8); for DID (%) percentage decrease in immobility duration: vs control
Procedure: Pharmacological experiments of antidepressant activity used FST in mice, fluoxetine hydrochloride was used as a positive control, and the vehicle solvent PFG–400 was used as a blank control. The experiment used ICR male mice (20 ± 2 g). Six benzothiazole–quinoline derivatives were dissolved in polyethylene glycol–400, and 30 min after administration (i.p., 30 mg/kg), the mice were each placed in a glass cylinder, recording the time of immobility. Duration of immobility outcomes is expressed as mean ± SEM. The t-test was used to make comparisons between groups.

Sequence of BuChE (P06276 29-602): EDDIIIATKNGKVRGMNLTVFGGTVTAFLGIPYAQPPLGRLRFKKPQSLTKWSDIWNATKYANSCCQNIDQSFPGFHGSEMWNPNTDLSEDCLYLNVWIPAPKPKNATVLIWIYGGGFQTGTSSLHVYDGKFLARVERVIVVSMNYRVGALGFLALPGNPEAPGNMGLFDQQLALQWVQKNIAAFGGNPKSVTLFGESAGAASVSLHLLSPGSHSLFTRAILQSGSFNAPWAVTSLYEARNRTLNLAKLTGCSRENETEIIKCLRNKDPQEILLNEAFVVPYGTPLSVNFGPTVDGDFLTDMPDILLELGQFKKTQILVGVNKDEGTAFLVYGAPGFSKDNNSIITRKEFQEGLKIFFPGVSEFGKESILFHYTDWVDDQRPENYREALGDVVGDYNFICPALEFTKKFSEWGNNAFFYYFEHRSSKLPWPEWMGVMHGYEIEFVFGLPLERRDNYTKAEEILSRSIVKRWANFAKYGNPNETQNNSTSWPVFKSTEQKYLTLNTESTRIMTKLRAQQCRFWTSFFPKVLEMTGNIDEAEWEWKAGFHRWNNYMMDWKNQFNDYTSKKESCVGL
Sequence of AChE (P22303 32-614): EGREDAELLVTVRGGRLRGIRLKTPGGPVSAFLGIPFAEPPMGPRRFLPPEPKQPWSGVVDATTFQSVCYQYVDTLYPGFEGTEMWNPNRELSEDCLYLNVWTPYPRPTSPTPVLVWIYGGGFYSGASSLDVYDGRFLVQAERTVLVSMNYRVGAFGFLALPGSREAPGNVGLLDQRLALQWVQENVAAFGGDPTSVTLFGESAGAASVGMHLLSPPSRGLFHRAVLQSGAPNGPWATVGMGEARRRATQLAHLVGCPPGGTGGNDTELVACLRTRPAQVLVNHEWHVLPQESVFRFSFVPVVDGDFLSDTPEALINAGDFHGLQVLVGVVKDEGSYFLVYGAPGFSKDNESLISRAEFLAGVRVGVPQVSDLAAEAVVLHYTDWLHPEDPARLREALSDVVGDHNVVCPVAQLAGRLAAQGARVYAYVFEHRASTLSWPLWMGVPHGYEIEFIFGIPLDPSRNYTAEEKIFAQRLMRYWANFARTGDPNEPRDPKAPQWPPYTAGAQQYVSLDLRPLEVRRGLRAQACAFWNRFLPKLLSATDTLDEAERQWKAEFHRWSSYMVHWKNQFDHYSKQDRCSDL

Row | Compound | viability at 24 h (Cytotoxicity, MTT method) [%] | IC50 (BuChE) [µM] | Inhibition Rate (%) BuChE (BuChE) [%] | IC50 (AChE) [µM] | Inhibition Rate (%) AChE (AChE) [%] | IC50 (MAO) [µM] | Inhibition Rate of MAO (%) (MAO) | IC50 (MAO–B) [µM] | Inhibition Rate (%) MAO–B (MAO–B) [%] | Inhibition Rate (%) MAO–A (MAO–A) [%] | Duration of Immobility (ICR male mice) [s] | DID (%) percentage decrease in immobility duration (ICR male mice) [%]
1 | O=C(CN1CCc2ccccc2[C@H]1c1ccccc1)Nc1nc2c(Br)cccc2s1 [Compound 4d, (R)–N–(4–bromobenzo[d]thiazol–2–yl)–2–(1–phenyl–3,4–dihydroisoquinolin–2(1H)–yl)acetamide] | > 90 | 14.6 ± 5.81 | 77.76 | > 150 | 0.55 | 64.8 ± 4.2 | 43.37 | 3.26 ± 2.78 | 46.00 | 18.05 | 62.3 ± 14.0 | 65.06
2 | O=C(CN1CCc2ccccc2[C@H]1c1ccccc1)Nc1nc2ccc(Cl)cc2s1 [Compound 4c, (R)–N–(6–chlorobenzo[d]thiazol–2–yl)–2–(1–phenyl–3,4–dihydroisoquinolin–2(1H)–yl)acetamide] | > 90 | > 150 | 68.80 | > 150 | 1.10 | 45.9 ± 2.66 | 21.59 | 9.13 ± 4.17 | 48.45 | 12.03 | 77.0 ± 18.3 | 56.84
3 | O=C(CN1CCc2ccccc2[C@H]1c1ccccc1)Nc1nc2cc(Cl)ccc2s1 [Compound 4b, (R)–N–(5–chlorobenzo[d]thiazol–2–yl)–2–(1–phenyl–3,4–dihydroisoquinolin–2(1H)–yl)acetamide] | > 90 | 17.6 ± 1.78 | 69.44 | > 150 | 4.42 | 38.8 ± 3.76 | 39.27 | 40.8 ± 2.67 | 39.15 | 3.01 | 85.7 ± 8.1 | 51.98
4 | O=C(CN1CCc2ccccc2[C@H]1c1ccccc1)Nc1nc2ccc(Br)cc2s1 [Compound 4f, (R)–N–(6–bromobenzo[d]thiazol–2–yl)–2–(1–phenyl–3,4–dihydroisoquinolin–2(1H)–yl)acetamide] | > 90 | > 150 | 32.32 | > 150 | 1.10 | 41.8 ± 2.94 | 24.15 | 47.6 ± 1.82 | 46.49 | 15.04 | 71.7 ± 4.9 | 59.83
5 | Cc1cccc2sc(NC(=O)CN3CCc4ccccc4[C@H]3c3ccccc3)nc12 [Compound 4g, (R)–N–(4–methylbenzo[d]thiazol–2–yl)–2–(1–phenyl–3,4–dihydroisoquinolin–2(1H)–yl)acetamide] | > 90 | 30.3 ± 4.59 | 72.64 | > 150 | 1.10 | 14.8 ± 5.45 | 57.11 | 12.1 ± 3.47 | 51.39 | 9.03 | 69.0 ± 15.7 | 61.32
